{
  "source": "patent US7419785B2",
  "about": "“Methods and compositions in breast cancer diagnosis and therapeutics” (Baylor College of Medicine, priority 2001, dated 2008)",
  "key": {"[1]": {"system": "WT ERα and the A908G ERα mutation", "assay": "Saturation binding Scatchard analyses", "set-up": "species or system human"}, "[2]": {"system": "breast cancer", "conditions": "patients with a history of ADH receiving tamoxifen (Fisher et al., 1998); cited from earlier work"}, "[3]": {"system": "MCF-7 cells stably transfected with the mutant ER (A908G, Lys303Arg)", "assay": "Cell growth of MCF-7 clones stably transfected with the mutant ER in response to estradiol", "format": "cell-based, human", "conditions": "cells expressing the ERα mutant, calculated from the growth curves", "protocol": "(§1) The medium was replaced every 48 h and the cells were harvested and counted on days 2, 4, 6, and 8, respectively. Cell number X 10^4 is shown.\n(§2) The WT ER expression construct was prepared in the pcDNAI vector as described previously (Fuqua et al., 1995). Site directed mutagenesis of this construct was then utilized to generate the A908G transition and the entire coding sequence of ER was verified by dideoxysequence analysis in this clone. The generation of stable transfectants was performed as described by Oesterreich et al. (1993) using cotransfection with the G418-selectable expression vector pSVneo at a ration of 25:1 with the ER plasmids into MCF-7 breast cancer cells. […] Two to three-fold elevated levels of total ER protein were detected in the two WT ER and the three Var clones. […] Furthermore, the relative levels of WT or Var sequences were determined by genomic sequence analysis as described above; the ER Var transfectants contained both WT nucleotide (A) and Var nucleotide (G) sequence in approximately equal ratios on the sequencing gels.\n(§3) The proliferative response to hormones in breast cancer cell transfectants containing the mutation was tested to determine if this ER mutation confers a selective advantage. […] This cell line was chosen because it was determined that WT ERα was expressed along with the mutant in the original 2/4 typical hyperplastic lesions which were examined. […]"}, "[4]": {"system": "MCF-7 breast cancer cells", "assay": "Cell growth of untransfected parental MCF-7 cells in response to estradiol", "format": "cell-based, human", "conditions": "calculated from the growth curves", "protocol": "as §1, §2, §3"}},
  "data": [
    {"smiles": "CC/C(=C(\\c1ccccc1)c1ccc(OCCN(C)C)cc1)c1ccccc1", "note": "[tamoxifen]", "values": [
      {"measurement": "difference in affinity between WT ERα and the A908G ERα mutation", "setting": "[1]", "result": "nor were there differences in affinity"},
      {"measurement": "decrease in breast cancer incidence", "setting": "[2]", "result": 85, "unit": "%"}
    ]},
    {"smiles": "C[C@]12CC[C@@H]3c4ccc(O)cc4CC[C@H]3[C@@H]1CC[C@@H]2O", "note": "[estradiol]", "values": [
      {"measurement": "doubling time", "setting": "[3]; 10^−9 M of hormone", "result": 1.3, "unit": "days"},
      {"measurement": "doubling time", "setting": "[3]; 10^−12 M of hormone", "result": 1.3, "unit": "days"},
      {"measurement": "doubling time", "setting": "[4]; MCF-7 cells in 10^−9 M estradiol", "result": 1.3, "unit": "days"},
      {"measurement": "doubling time", "setting": "[4]; MCF-7 cells in 10^−12 M estradiol", "result": 2.2, "unit": "days"}
    ]}
  ]
}
